The target in experiment [1] is T1, catalytic domain (JH1, amino acids 826-1132) of human JAK2 (Homo sapiens, UniProt O60674).
T1 construct: catalytic domain (JH1, amino acids 826-1132) of human JAK2; purchased Carna Biosciences 08-445-20N; host or cells: baculovirus expression system
Description: JAK2 LanthaScreen JH1 Binding Assay. The settings on record: 2 hours at 25° C. On the procedure:
Example A. JAK2 LanthaScreen JH1 Binding Assay
JAK2 JH1 binding assay utilizes catalytic domain (JH1, amino acids 826-1132) of human JAK2 expressed as N-terminal FLAG-tagged, biotinylated protein in a baculovirus expression system (Carna Biosciences, Product #08-445-20N). The assay was conducted in black 384-well polystyrene plates in a final reaction volume of 20 μL. JAK2 JH1 (1.5 nM) was incubated with compounds (100 nL serially diluted in DMSO) in the presence of 50 nM Fluorescent JAK2-JH1 Tracer and 0.5 nM Streptavidin-Tb cryptate (Cisbio Part #610SATLB) in assay buffer (50 mM Tris, pH=7.5, 10 mM MgCl2, 0.01% Brij-35, 0.1% BSA, 1 mM EGTA, 5% Glycerol and 5 mM DTT). Non-specific binding was accessed in the presence of 2 mM ATP. After incubation for 2 hours at 25° C., LanthaScreen signals were read on a PHERAstar FS plate reader (BMG LABTECH). Data was analyzed with IDBS XLfit and GraphPad Prism 5.0 software using a four parameter dose response curve to determine IC50 for each compound.
On the technique in general: TR-FRET usually uses a lanthanide donor and a delayed reading to cut background.

Experiment [2] deals with T2, catalytic domain (JH1, amino acids 808-1132) of human JAK2 (Homo sapiens, UniProt O60674).
T2 construct: catalytic domain (JH1, amino acids 808-1132) of human JAK2; His (N); purchased BPS Bioscience 40450; host or cells: baculovirus expression system
T2 sequence (O60674 808-1132): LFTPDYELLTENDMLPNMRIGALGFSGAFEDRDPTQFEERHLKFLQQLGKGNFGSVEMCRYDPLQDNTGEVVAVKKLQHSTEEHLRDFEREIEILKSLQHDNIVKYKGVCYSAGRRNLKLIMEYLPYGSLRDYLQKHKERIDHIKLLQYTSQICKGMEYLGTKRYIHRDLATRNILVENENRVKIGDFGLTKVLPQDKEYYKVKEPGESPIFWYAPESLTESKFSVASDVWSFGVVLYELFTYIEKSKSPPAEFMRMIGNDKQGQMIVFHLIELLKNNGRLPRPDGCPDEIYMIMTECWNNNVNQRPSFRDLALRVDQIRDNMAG
Description: JAK2 HTRF Enzyme Activity Assay. Type of experiment: biochemical. The settings on record: ATP 30 μM, read-out: ENZ 30UMATP. On the procedure:
Example D. JAK2 HTRF Enzyme Activity Assay
JAK2 enzyme activity assays utilize catalytic domain (JH1, amino acids 808-1132) of human JAK2 expressed as N-terminal His-tagged protein in a baculovirus expression system (BPS Bioscience, Catalog #40450). The assays was conducted in black 384-well polystyrene plates in a final reaction volume of 20 μL. JAK2 (0.015 nM) was incubated with compounds (100 nL serially diluted in DMSO) in the presence of ATP (30 μM or 1 mM) and 500 nM Biotin-labeled […] (SEQ ID NO.: 1) peptide (BioSource International, custom synthesis) in assay buffer (50 mM Tris, pH=7.5, 10 mM MgCl2, 0.01% Brij-35, 0.1% BSA, 1 mM EGTA, 5% Glycerol and 5 mM DTT) for 60 minutes at 25° C. The reactions were stopped by the addition of 10 μL of detection buffer (50 mM Tris, pH 7.8, 0.5 mg/mL BSA, 150 mM NaCl), supplemented with EDTA, LANCE Eu-W1024 anti-phosphotyrosine (PY20), (PerkinElmer, Catalog #AD0067) and Streptavidin SureLight APC (PerkinElmer Catalog #CR130-100), for a final concentration of 15 mM, 1.5 nM and 75 nM, respectively. HTRF signals were read after 30 minutes incubation at room temperature on a PHERAstar FS plate reader (BMG LABTECH). Data was analyzed with IDBS XLfit and GraphPad Prism 5.0 software using a four parameter dose response curve to determine IC50 for each compound.

Experiment [3] concerns the target T3, pseudo-kinase domain (JH2, amino-acids 536-812) of human Wild Type JAK2 (Homo sapiens, UniProt O60674, F794H/W659A/W777A).
T3 construct: pseudo-kinase domain (JH2, amino-acids 536-812 with 3 surface mutations W659A, W777A, F794H); purchased BPS Bioscience 79463; host or cells: baculovirus expression system
The experiment in a line: JAK2 LanthaScreen JH2-WT Binding Assay. Particulars: 1 hour at 25° C. On the procedure:
Example B. JAK2 LanthaScreen JH2-WT Binding Assay
(§1) JAK2 JH2-WT binding assay utilizes pseudo-kinase domain (JH2, amino-acids 536-812 with 3 surface mutations W659A, W777A, F794H) of human Wild Type JAK2 expressed as C-terminal His-Avi-tagged, biotinylated protein in a baculovirus expression system (BPS Bioscience, Catalog #79463). The assay was conducted in black 384-well polystyrene plates in a final reaction volume of 20 μL. JAK2 JH2-WT (0.145 nM) was incubated with compounds (100 nL serially diluted in DMSO) in the presence of 50 nM Fluorescent JAK2-JH2 Tracer (MedChem Express Catalog #HY-102055) and 0.25 nM Streptavidin-Tb cryptate (Cisbio Part #610SATLB) in assay buffer (50 mM Tris, pH=7.5, 10 mM MgCl2, 0.01% Brij-35, 0.1% BSA, 1 mM EGTA, 5% Glycerol and 5 mM DTT). Non-specific binding was accessed in the presence of 2 mM ATP. After incubation for 1 hour at 25° C., LanthaScreen signals were read on a PHERAstar FS plate reader (BMG LABTECH). Data was analyzed with IDBS XLfit and GraphPad Prism 5.0 software using a four parameter dose response curve to determine IC50 for each compound.

In experiment [4] the target is T4, pseudo-kinase domain (JH2, amino-acids 536-812) of human V617F mutant JAK2 (Homo sapiens, UniProt O60674, F794H/V617F/W659A/W777A).
T4 construct: pseudo-kinase domain (JH2, amino-acids 536-812 with 3 surface mutations W659A, W777A, F794H); purchased BPS Bioscience 79498; host or cells: baculovirus expression system
T4 sequence (O60674 536-812 V617F/W659A/W777A/F794H): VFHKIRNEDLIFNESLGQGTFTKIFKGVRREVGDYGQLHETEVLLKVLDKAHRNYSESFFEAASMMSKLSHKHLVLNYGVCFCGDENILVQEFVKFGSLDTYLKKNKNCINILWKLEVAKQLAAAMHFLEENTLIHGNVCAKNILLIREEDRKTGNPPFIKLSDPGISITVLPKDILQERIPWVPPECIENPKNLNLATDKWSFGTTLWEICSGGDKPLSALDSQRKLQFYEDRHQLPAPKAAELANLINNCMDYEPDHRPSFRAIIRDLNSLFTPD
The experiment in a line: JAK2 LanthaScreen JH2-V617F Binding Assay. The settings on record: 1 hour at 25° C. On the procedure:
Example C. JAK2 LanthaScreen JH2-V617F Binding Assay
as §1, with “JH2-V617F” for “JH2-WT”, “V617F mutant” for “Wild Type”, “#79498).” for “#79463).”, “JH2-V617F (0.26” for “JH2-WT (0.145”

Where a name gives a salt, the structure may show the parent alone.

T3 sequence (O60674 536-812 W659A/W777A/F794H): as the sequence (O60674 536-812 V617F/W659A/W777A/F794H) above, with F82V counted along it
T1 sequence (O60674 826-1132): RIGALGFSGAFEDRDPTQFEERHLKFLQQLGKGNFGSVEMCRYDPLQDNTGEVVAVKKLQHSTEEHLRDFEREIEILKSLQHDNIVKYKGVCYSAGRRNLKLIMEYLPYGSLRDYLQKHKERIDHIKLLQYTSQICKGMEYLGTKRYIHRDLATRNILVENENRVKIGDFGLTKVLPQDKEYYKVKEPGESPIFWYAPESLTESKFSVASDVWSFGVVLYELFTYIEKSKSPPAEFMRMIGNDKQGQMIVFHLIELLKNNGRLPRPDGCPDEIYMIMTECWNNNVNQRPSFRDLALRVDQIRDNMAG

For `CC(CC#N)n1cc(-c2ccc(-c3c(-c4cnn(C)c4)[nH]c4ncc5c(c34)C3(CCCC3)C(=O)N5C)cc2)cn1` (racemic) [Example 14, 3-(4-(4-(6′-Methyl-2′-(1-methyl-1H-pyrazol-4-yl)-7′-oxo-6′,7′-dihydro-3′H-spiro[cyclopentane-1,8′-dipyrrolo[2,3-b:3′,2′-d]pyridin]-1′-yl)phenyl)-1H-pyrazol-1-yl)butanenitrile trifluoroacetate salt], the IC50 in experiment [1] is more than 2500 nM; in experiment [2], more than 2500 nM; in experiment [3] it was not above 100 nM; in experiment [4], 100 to 500 nM.

For the molecule `CN1C(=O)C2(CCN(C(C(N)=O)c3ccc(F)cc3)CC2)c2c1cnc1[nH]c(-c3cnn(C)c3)c(-c3ccccc3)c21` (racemic) [Example 26, 2-(4-Fluorophenyl)-2-(6-methyl-2-(1-methyl-1H-pyrazol-4-yl)-7-oxo-1-phenyl-6,7-dihydro-3H-spiro[dipyrrolo[2,3-b:3′,2′-d]pyridine-8,4′-piperidin]-1′-yl)acetamide, trifluoroacetate salt], the IC50 is 100 to 500 nM in experiment [1], not above 100 nM in experiment [2], not above 100 nM in experiment [3] and not above 100 nM in experiment [4].

`CN1C(=O)C2(CCN(C3(CC#N)CCC3)CC2)c2c1cnc1[nH]c(C3=CCC(C(=O)N4CCOCC4)CC3)c(-c3ccc4c(cnn4C)c3)c21` (racemic) [Example 34, 2-(1-(6-Methyl-1-(1-methyl-1H-indazol-5-yl)-2-(4-(morpholine-4-carbonyl)cyclohex-1-en-1-yl)-7-oxo-6,7-dihydro-3H-spiro[dipyrrolo[2,3-b:3′,2′-d]pyridine-8,4′-piperidin]-1′-yl)cyclobutyl)acetonitrile, trifluoroacetate salt]: the IC50 in experiment [1] was 500 to 1250 nM; in experiment [2] it was 500 to 1250 nM; in experiment [3] it was not above 100 nM; in experiment [4] it was not above 100 nM.

Take `CN1C(=O)C2(CCN(C3(CC#N)CCC3)CC2)c2c1cnc1[nH]c(-c3cnn(C4CCOC4)c3)c(-c3ccc4c(cnn4C)c3)c21` (racemic) [Example 45, 2-(1-(6-Methyl-1-(1-methyl-1H-indazol-5-yl)-7-oxo-2-(1-(tetrahydrofuran-3-yl)-1H-pyrazol-4-yl)-6,7-dihydro-3H-spiro[dipyrrolo[2,3-b:3′,2′-d]pyridine-8,4′-piperidin]-1′-yl)cyclobutyl)acetonitrile, trifluoroacetate salt]: the IC50 was 100 to 500 nM in experiment [1], not above 100 nM in experiment [2], not above 100 nM in experiment [3] and not above 100 nM in experiment [4].

Turning to `CN1C(=O)[C@]2(CC[C@@H](NS(=O)(=O)C3CC3)C2)c2c1cnc1[nH]c(-c3cnn(C)c3)c(-c3ccc4c(cnn4C)c3)c21` (racemic) [Example 55, trifluoroacetate salt], the IC50 in experiment [1] was 1250 to 2500 nM; in experiment [2] it was 500 to 1250 nM; in experiment [3], not above 100 nM; in experiment [4], not above 100 nM.

Take `[2H]C([2H])([2H])n1ncc2cc(-c3c(-c4cnn(C)c4)[nH]c4ncc5c(c34)[C@@]3(CC[C@H](NS(=O)(=O)C4CC4)C3)C(=O)N5C)ccc21` (racemic) [Example 56, trifluoroacetate salt]: the IC50 in experiment [1] is 1250 to 2500 nM; in experiment [2] it was 1250 to 2500 nM; in experiment [3], not above 100 nM; in experiment [4], not above 100 nM.

In the case of `CCCC(=O)N1CCC2(CC1)CC1(C2)C(=O)N(C)c2cnc3[nH]c(C4=CCC(C(=O)N(C)C)CC4)c(-c4ccc5c(cnn5C)c4)c3c21` (racemic) [Example 63, 4-(1″-Butyryl-6-methyl-1-(1-methyl-1H-indazol-5-yl)-7-oxo-6,7-dihydro-3H-dispiro[dipyrrolo[2,3-b:3′,2′-d]pyridine-8,1′-cyclobutane-3′,4″-piperidin]-2-yl)-N,N-dimethylcyclohex-3-ene-1-carboxamide, trifluoroacetate salt], the IC50 in experiment [1] was more than 2500 nM; in experiment [2], more than 2500 nM; in experiment [3], not above 100 nM; in experiment [4] it was not above 100 nM.

`CN1C(=O)C2(CCN(CC3(CC#N)CC3)C2)c2c1cnc1[nH]c(-c3ccc4c(c3)OCC(=O)N4)c(-c3ccc4c(cnn4C)c3)c21` (racemic) [Example 67, 2-(1-((6-Methyl-1-(1-methyl-1H-indazol-5-yl)-7-oxo-2-(3-oxo-3,4-dihydro-2H-benzo[b][1,4]oxazin-7-yl)-6,7-dihydro-3H-spiro[dipyrrolo[2,3-b:3′,2′-d]pyridine-8,3′-pyrrolidin]-1′-yl)methyl)cyclopropyl)acetonitrile, trifluoroacetate salt]: the IC50 is more than 2500 nM in experiment [1], more than 2500 nM in experiment [2], not above 100 nM in experiment [3] and not above 100 nM in experiment [4].

As for `CN1C(=O)C2(CCN(CC3(CC#N)CC3)C2)c2c1cnc1[nH]c(-c3cnn4cccnc34)c(-c3ccc4c(cnn4C)c3)c21` (racemic) [Example 68, 2-(1-((6-Methyl-1-(1-methyl-1H-indazol-5-yl)-7-oxo-2-(pyrazolo[1,5-a]pyrimidin-3-yl)-6,7-dihydro-3H-spiro[dipyrrolo[2,3-b:3′,2′-d]pyridine-8,3′-pyrrolidin]-1′-yl)methyl)cyclopropyl)acetonitrile, trifluoroacetate salt], the IC50 in experiment [1] is more than 2500 nM; in experiment [2] it was more than 2500 nM; in experiment [3], not above 100 nM; in experiment [4] it was not above 100 nM.
